Assay results as given in US11814364B2, “Pyridine N-oxide derivatives useful as factor XIa inhibitors” (Janssen Pharmaceutica NV, priority 2021, dated 2023).
pIC50: −log10 of the molar value.

target: human plasma kallikrein (Homo sapiens, UniProt P03952); experiment: Kallikrein inhibition FLINT assay with quenched AMC peptide substrate Z-Gly-Pro-Arg-AMC (end point EP or kinetic KIN reads); assay type: biochemical; conditions: kinetic reads at 5 min intervals over 30 min; read-out: Kallikrein (KIN) IC50
Sequence (P03952 391-638 limits assumed): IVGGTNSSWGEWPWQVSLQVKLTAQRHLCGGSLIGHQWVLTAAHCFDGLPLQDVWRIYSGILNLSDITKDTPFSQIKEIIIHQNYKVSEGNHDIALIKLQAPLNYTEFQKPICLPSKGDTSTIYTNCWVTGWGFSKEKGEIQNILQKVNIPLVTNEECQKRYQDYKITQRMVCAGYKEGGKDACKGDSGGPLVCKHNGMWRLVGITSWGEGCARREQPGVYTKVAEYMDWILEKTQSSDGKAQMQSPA
Sequence (P03952 20-390 partner limits assumed): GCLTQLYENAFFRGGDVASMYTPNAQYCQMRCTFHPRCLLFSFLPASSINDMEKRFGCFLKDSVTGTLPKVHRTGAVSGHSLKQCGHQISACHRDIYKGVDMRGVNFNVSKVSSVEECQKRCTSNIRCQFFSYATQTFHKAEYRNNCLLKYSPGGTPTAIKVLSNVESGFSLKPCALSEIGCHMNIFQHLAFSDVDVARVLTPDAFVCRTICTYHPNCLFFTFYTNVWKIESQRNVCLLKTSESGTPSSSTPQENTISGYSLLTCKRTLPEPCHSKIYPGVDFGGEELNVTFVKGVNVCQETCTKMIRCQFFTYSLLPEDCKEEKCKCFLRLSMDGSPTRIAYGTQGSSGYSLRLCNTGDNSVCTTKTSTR
Procedure, shortened: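 Enzyme and compound were preincubated 30 min before adding 50 μM AMC substrate in pH 7.5 Tris/NaCl/CaCl2/BSA/CHAPS buffer. AMC release was read at 30 min endpoint or every 5 min.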

| pIC50 | Structure (SMILES) |
| --- | --- |
| 7.83 | [O-][n+]1ccc(-c2cnn(C(CCOC(F)F)c3ccc(-c4c(-n5cnnn5)ccc(Cl)c4F)c[n+]3[O-])c2)c(F)c1 (single isomer, unassigned) [Example P306] |
| 6.84 | [O-][n+]1cc(-c2c(-n3cnnn3)ccc(Cl)c2F)ccc1C(Cn1cc(-c2ccccn2)cn1)n1cc(-c2ccccn2)cn1 (single isomer, unassigned) [Example P515] |
| 6.32 | NC(=O)c1ccc(-c2cnn(C(Cc3ccn(C(F)F)n3)c3ccc(-c4c(C(F)F)ccc(Cl)c4F)c[n+]3[O-])c2)cc1F (single isomer, unassigned) [Example Q66] |
| 7.13 | Cn1nnc(F)c1-c1cnn([C@H](CCOC(F)F)c2ccc(-c3c(-n4cc(C(F)(F)F)nn4)ccc(Cl)c3F)c[n+]2[O-])c1 [Example P754] |
| 6.67 | N#Cc1cc(-c2cnn(C(CC3CC3)c3ccc(-c4c(-n5cnnn5)ccc(Cl)c4F)c[n+]3[O-])c2)ccn1 (stereo not drawn) [Example P294] |
| 6.24 | O=C(O)c1cc(-c2cnn(C(CC3CC3)c3ccc(-c4c(C(F)F)ccc(Cl)c4F)c[n+]3[O-])c2)c[nH]1 (stereo not drawn) [Example Q24] |
| 8.21 | NC(=O)c1ccc(-c2cnn(C(Cc3nccs3)c3ccc(-c4c(-n5cc(C(F)(F)F)nn5)ccc(Cl)c4F)c[n+]3[O-])c2)cc1F (single isomer, unassigned) [Example P943] |
| 8.14 | O=C1CCCN1CC(c1ccc(-c2c(-n3cnnn3)ccc(Cl)c2F)c[n+]1[O-])n1cc(-c2ccnc(F)c2)cn1 (single isomer, unassigned) [Example P382] |
| 6.96 | CN(CC(c1ccc(-c2c(-n3cnnn3)ccc(Cl)c2F)c[n+]1[O-])n1cc(-c2ccnc(C(F)(F)F)c2)cn1)C(=O)C1CCOCC1 (stereo not drawn) [Example P407] |
| 7.79 | COc1cc(C(CC2CC2)n2cc(-c3ccnn3C)cn2)[n+]([O-])cc1-c1c(-n2cnnn2)ccc(Cl)c1F (single isomer, unassigned) [Example P490] |
| 8.85 | Nc1ccc(-c2cnn(C(Cn3cccn3)c3ccc(-c4c(-n5cnnn5)ccc(Cl)c4F)c[n+]3[O-])c2)c(F)n1 (single isomer, unassigned) [Example P314] |
| 7.36 | Cn1cc(CC(c2ccc(-c3c(-n4cnnn4)ccc(Cl)c3F)c[n+]2[O-])n2cc(-c3ccnc(C(F)(F)F)c3)cn2)nn1 (stereo not drawn) [Example P695] |
| 7.36 | CN(CC(c1ccc(-c2c(-n3cnnn3)ccc(Cl)c2F)c[n+]1[O-])n1cc(-c2ccnc(C(F)(F)F)c2)cn1)C(=O)c1ccccc1 (single isomer, unassigned) [Example P423] |
| 6.51 | CC(C)n1ccc(C[C@@H](c2ccc(-c3c(-n4cnnn4)ccc(Cl)c3F)c[n+]2[O-])n2cc(-c3ccnc(C(F)(F)F)c3)cn2)n1 [Example P651] |
| 6.34 | Cn1cc(-c2cnn([C@H](CCOC(F)F)c3ccc(-c4c(-n5cc(C(F)(F)F)nn5)ccc(Cl)c4F)c[n+]3[O-])c2)nn1 [Example P760] |
| 7.06 | COC(=O)Nc1ccc(-c2cnn(C(CCO)c3ccc(-c4c(-n5cnnn5)ccc(Cl)c4F)c[n+]3[O-])c2)cc1 (single isomer, unassigned) [Example P218] |
| 7.25 | Cn1ncnc1-c1cnn([C@H](Cc2ccn(C(F)F)n2)c2ccc(-c3c(-n4cc(Cl)nn4)ccc(Cl)c3F)c[n+]2[O-])c1 [Example P794] |
| 6.41 | [O-][n+]1cc(-c2c(-n3cnnn3)ccc(Cl)c2F)ccc1C(CC1CC1)n1cc(-c2ccnc(C(F)(F)F)n2)cn1 (stereo not drawn) [Example P295] |
| 8.19 | NC(=O)c1ccc(-c2cnn(C(Cc3ccn(C(F)F)n3)c3ccc(-c4c(-n5cc(C(F)(F)F)nn5)ccc(Cl)c4F)c[n+]3[O-])c2)cc1F (single isomer, unassigned) [Example P906] |
| 6.82 | [O-][n+]1cc(-c2c(-n3cnnn3)ccc(Cl)c2F)ccc1C(CCOC(F)(F)F)n1cc(-c2ccncn2)cn1 (stereo not drawn) [Example P366] |
| 7.38 | Cn1ncnc1-c1cnn(C(CC2CC2)c2ccc(-c3c(-n4cc(C(F)(F)F)nn4)ccc(Cl)c3F)c[n+]2[O-])c1 (stereo not drawn) [Example P874] |
